The values below come from PubChem BioAssay (NCI).

SMILES strings stand for the structures.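 Method: 48-hour compound exposure of cells in 96-well plates, five concentrations, linear interpolation of endpoints. TGI: total growth inhibition.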 Where only a bound is given, the exact number is not on record here.

What all share (assay): NCI anticancer screen, dose series, 48 h
Test [1] relates to A498 renal.
In test [2] the test system is ACHN renal.
Test [3] concerns CAKI-1 renal.
The test system of test [4] is COLO 205 colon.
For test [5], the system named is HCT-15 colon.
For test [6], the system named is HOP-62 NSCLC.
Test [7] deals with HS 578T breast.
For test [8], the system named is M14 melanoma.
The test system of test [9] is NCI-H226 lung.
Test [10] deals with OVCAR-5 ovarian.
Test [11] deals with RXF 393 renal.
Test [12] deals with SK-MEL-5 melanoma.
Test [13] deals with SN12C renal.
In test [14] the test system is SNB-75 CNS.
The test system of test [15] is T-47D breast.
For test [16], the system named is UACC-257 melanoma.
The test system of test [17] is SK-OV-3 ovarian.

For `CCOC1=C(c2ccccc2)N2CCCCC2O1` (stereo not given), the TGI is 32.2 µM in [1]; over 100 µM in test [2]; over 84.2 µM in test [3]; 4.7 µM in test [4]; 98.6 µM in [5]; 17.6 µM in test [6]. The TGI in [7] is 33.1 µM; in test [8] it was 12.1 µM; in test [9], 32.5 µM; in test [10], over 59.2 µM; in test [11], 37.4 µM; in test [12], 4.54 µM. In addition, the TGI is over 41.9 µM in [13], 28.7 µM in [14], 6.82 µM in [15] and over 33.6 µM in [16].

As to `Oc1ccc(-c2nc3ccccc3s2)cc1`, the TGI is over 100 µM in test [1]; over 100 µM in test [2]; 58.3 µM in [3]; over 100 µM in test [4]; over 100 µM in test [5]; over 100 µM in test [6]. In addition, the TGI in test [7] is 78.8 µM; in [8], over 100 µM; in test [9], over 100 µM; in test [10] it was over 100 µM; in test [11], over 100 µM; in test [17] it was 86 µM. The TGI in test [13] is over 100 µM; in [14], over 100 µM; in test [15] it was 70 µM; in [16] it was over 100 µM.

Turning to `COc1cc(Oc2nc3cc(F)c(F)cc3nc2-c2ccccc2)cc(OC)c1OC`, the TGI in test [1], in [2], in test [3], in test [4], in test [5] and in [6] was over 100 µM each time. Further, the TGI in test [7] is over 100 µM; in test [8] it was over 100 µM; in test [9], over 100 µM; in [10], over 100 µM; in test [11], over 100 µM; in test [12] it was 75.3 µM. In addition, the TGI is over 100 µM in test [17]; over 100 µM in test [13]; 51.2 µM in test [14]; over 100 µM in [15]; over 100 µM in test [16].

In the case of `Cc1ccccc1NC(=O)CC(=O)NNC(Sc1ccccc1)c1cc(N=Nc2ccc(Br)cc2)ccc1O` (stereo not given), the TGI is 7.96 µM in [1]; over 10 µM in test [2]; over 10 µM in test [3]; over 10 µM in test [4]; over 10 µM in [5]; over 10 µM in test [6]. Also, the TGI in [7] is over 10 µM; in test [8] it was 2.63 µM; in test [9], over 10 µM; in test [10], over 10 µM; in test [11], over 10 µM; in [12] it was 3.42 µM. Also, the TGI in test [17], in test [13], in test [14], in [15] and in test [16] was over 10 µM each time.

Turning to `CC(C)(C)C1=C(Br)C(O)(C(C)(C)C)OP1(=O)c1ccccc1` (stereo not given), the TGI in test [1], in test [2], in [3], in test [4], in test [5] and in test [6] was over 100 µM each time. Besides, the TGI in [7], in [10], in test [11], in [12], in test [17] and in test [13] was over 100 µM each time. Moreover, the TGI in test [14], in test [15] and in [16] was over 100 µM each time.

On to `CCNc1cc2c3c(c1)CCN3CCC2`, for which the TGI in test [1], in [2], in test [3], in [4], in test [5] and in test [6] was over 10 µM each time. Further, the TGI in test [7], in [8], in [9], in [11], in test [12] and in test [17] was over 10 µM in each case. The TGI in test [13], in test [14], in [15] and in test [16] was over 10 µM in each case.

On to `COc1ccccc1NC(=O)CC(=O)NN`, for which the TGI in test [1], in test [2], in test [3], in [4], in [5] and in test [6] was over 100 µM throughout. The TGI in test [7], in [9], in [10], in test [11], in test [12] and in test [17] was over 100 µM each time. In addition, the TGI in test [13], in [14], in [15] and in test [16] was over 100 µM throughout.

On to `COc1nc(C#CC2CCCCC2)nc(OC)n1`, for which the TGI in test [1] was 37.2 µM; in test [2], 17.5 µM; in test [3], 12.5 µM; in [4] it was 53.5 µM; in test [5], 5.97 µM; in test [6], 18.4 µM. For the same compound, the TGI in test [7] was 17.7 µM; in test [8], 10.6 µM; in test [10], 12.3 µM; in [11] it was 19.1 µM; in test [12], 15.3 µM; in test [17], over 100 µM. Further, the TGI in test [13] was 11.1 µM; in test [14], 27.6 µM; in test [15] it was over 100 µM; in test [16], 23.5 µM.

`Cc1nc(Nc2ccccc2Cl)sc1C(=O)CC(=O)C(N)=O`: the TGI is 66.7 µM in test [1]; over 100 µM in [2]; over 100 µM in test [3]; over 100 µM in test [4]; over 100 µM in test [5]; over 100 µM in test [6]. Further, the TGI in test [7], in test [8], in test [9], in [10], in test [11] and in test [17] was over 100 µM throughout. Besides, the TGI is over 100 µM in test [13], 92.2 µM in test [14], over 100 µM in [15] and over 100 µM in test [16].
